Row | melting point | SMILES
1 | 241 to 243 °C | Br.CCOc1ccc(CN2CCN(C(=O)c3cc4ccc(Oc5ccc(N(C)C(=O)c6ccc(C(F)(F)F)cc6)cn5)cc4n3C)CC2)cc1 [Example 419, N-(6-{2-[4-(4-Ethoxybenzyl)piperazine-1-carbonyl]-1-methyl-1H-indol-6-yloxy}pyridin-3-yl)-N-methyl-4-trifluoromethylbenzamide hydrobromide]
2 | 273 to 276 °C | Br.CN(C(=O)c1ccc(C(F)(F)F)cc1)c1ccc(Oc2cccc3c2cc(C(=O)N2CCN(Cc4ccc(C#N)cc4)CC2)n3C)nc1 [Example 326, N-(6-{2-[4-(4-Cyanobenzyl)piperazine-1-carbonyl]-1-methyl-1H-indol-4-yloxy}pyridin-3-yl)-N-methyl-4-trifluoromethylbenzamide hydrobromide]
3 | 171 to 173 °C | COc1ccc(CN2CCN(C(=O)c3cc4cc(Oc5ccc(N(C)C(=O)c6ccc(C(F)(F)F)cc6O)cn5)ccc4n3C)CC2)cc1.O=C(O)C(=O)O [Example 592, 2-Hydroxy-N-(6-{2-[4-(4-methoxybenzyl)piperazine-1-carbonyl]-1-methyl-1H-indol-5-yloxy}pyridin-3-yl)-N-methyl-4-trifluoromethyl-benzamide oxalate]
4 | 256.2 to 256.5 °C | Cl.Cn1c(C(=O)N2CCN(Cc3ccc(OC(F)F)cc3)CC2)cc2ccc(Oc3ccc(NC(=O)c4ccc(OC(F)(F)F)cc4)cn3)cc21
5 | 231 to 234 °C | Br.CCOc1ccc(CN2CCN(C(=O)c3cc4cc(Oc5ccc(NC(=O)c6ccc(C(F)(F)F)cc6)cn5)ccc4n3C)CC2)cc1 [Example 363, N-(6-{2-[4-(4-Ethoxybenzyl)piperazine-1-carbonyl]-1-methyl-1H-indol-5-yloxy}pyridin-3-yl)-4-trifluoromethylbenzamide hydrobromide]
6 | 235 to 238 °C (dec.) | Br.CCOc1ccc(CN2CCN(C(=O)c3cc4cc(Oc5ccc(NC(=O)c6ccc(Cl)c(Cl)c6)cn5)ccc4n3C)CC2)cc1 [Example 360, 3,4-Dichloro-N-(6-{2-[4-(4-ethoxybenzyl)piperazine-1-carbonyl]-1-methyl-1H-indol-5-yloxy}pyridin-3-yl)benzamide hydrobromide]
7 | 242.5 to 246.7 °C | Br.CC(C)Oc1ccc(CN2CCN(C(=O)c3cc4ccc(Oc5ccc(NC(=O)c6ccc(Cl)c(Cl)c6)cn5)cc4n3C)CC2)c(F)c1 [Example 265, 3,4-Dichloro-N-(6-{2-[4-(2-fluoro-4-isopropoxybenzyl)piperazine-1-carbonyl]-1-methyl-1H-indol-6-yloxy}pyridin-3-yl)benzamide hydrobromide]
8 | 241.4 to 242.7 °C | Br.Cn1c(C(=O)N2CCN(Cc3ccc(O)cc3)CC2)cc2ccc(Oc3ccc(NC(=O)c4ccc(C(F)(F)F)cc4)cn3)cc21 [Example 459, N-(6-{2-[4-(4-Hydroxybenzyl)piperazine-1-carbonyl]-1-methyl-1H-indol-6-yloxy}pyridin-3-yl)-4-trifluoromethylbenzamide hydrobromide]
9 | 240 to 243 °C | Br.Cn1c(C(=O)N2CCN(Cc3ccc(OCCF)cc3)CC2)cc2cc(Oc3ccc(NC(=O)c4ccc(Cl)c(Cl)c4)cn3)ccc21 [Example 409, 3,4-Dichloro-N-[6-(2-{4-[4-(2-fluoroethoxy)benzyl]piperazine-1-carbonyl}-1-methyl-1H-indol-5-yloxy)pyridin-3-yl]benzamide hydrobromide]
10 | 189 to 201 °C | Br.CN(C(=O)c1ccc(C(F)(F)F)cc1)c1ccc(Oc2ccc3c(c2)cc(C(=O)N2CCN(Cc4ccccc4)CC2)n3C)nc1 [Example 329, N-{6-[2-(4-Benzylpiperazine-1-carbonyl)-1-methyl-1H-indol-5-yl-oxy]pyridin-3-yl}-N-methyl-4-trifluoromethylbenzamide hydrobromide]
11 | 232.4 to 234.2 °C | Br.Cn1c(C(=O)N2CCN(Cc3ccc(OCCF)cc3)CC2)cc2ccc(Oc3ccc(NC(=O)c4ccc(Cl)c(Cl)c4)cn3)cc21 [Example 464, 3,4-Dichloro-N-[6-(2-{4-[4-(2-fluoroethoxy)benzyl]piperazine-1-carbonyl}-1-methyl-1H-indol-6-yloxy)pyridin-3-yl]benzamide hydrobromide]
12 | 231 to 233 °C | Br.COc1cccc(CN2CCN(C(=O)c3cc4cc(Oc5ccc(NC(=O)c6ccc(C(F)(F)F)cc6)cn5)ccc4n3C)CC2)c1 [Example 353, N-(6-{2-[4-(3-Methoxybenzyl)piperazine-1-carbonyl]-1-methyl-1H-indol-5-yloxy}pyridin-3-yl)-4-trifluoromethylbenzamide hydrobromide]
13 | 222 to 226 °C | Br.CN(C(=O)c1ccc(Cl)c(Cl)c1)c1ccc(Oc2ccc3c(c2)cc(C(=O)N2CCN(Cc4ccc5c(c4)OCO5)CC2)n3C)nc1 [Example 6, N-{6-[2-(4-Benzo[1,3]dioxol-5-ylmethylpiperazine-1-carbonyl)-1-methyl-1H-indol-5-yloxy]pyridin-3-yl}-3,4-dichloro-N-methyl-benzamide hydrobromide]
14 | 267.3 to 267.7 °C | Cl.Cn1c(C(=O)N2CCN(Cc3ccc(OC(CF)CF)cc3)CC2)cc2ccc(Oc3ccc(NC(=O)c4ccc(C(F)(F)F)cc4F)cn3)cc21
15 | 264 to 269 °C | Br.Cn1c(C(=O)N2CCN(Cc3ccc4c(c3)OCO4)CC2)cc2cc(Oc3ccc(NC(=O)c4ccc(Cl)c(Cl)c4)cn3)ccc21 [Example 7, N-{6-[2-(4-Benzo[1,3]dioxol-5-ylmethylpiperazine-1-carbonyl)-1-methyl-1H-indol-5-yloxy]pyridin-3-yl}-3,4-dichlorobenzamide hydrobromide]
16 | 176 to 178 °C | Br.CN(C(=O)/C=C/c1cc(F)cc(F)c1)c1ccc(Oc2ccc3c(c2)cc(C(=O)N2CCN(Cc4ccc5c(c4)OCO5)CC2)n3C)nc1 [Example 12, (E)-N-{6-[2-(4-Benzo[1,3]dioxol-5-ylmethylpiperazine-1-carbonyl)-1-methyl-1H-indol-5-yloxy]pyridin-3-yl}-3-(3,5-difluorophenyl)-N-methylacrylamide hydrobromide]
17 | 204 to 208 °C | Br.CCCOc1ccc(CN2CCN(C(=O)c3cc4c(C)c(Oc5ccc(N(C)C(=O)c6ccc(C(F)(F)F)cc6)cn5)ccc4n3C)CC2)cc1 [Example 434, N-(6-{1,4-Dimethyl-2-[4-(4-propoxybenzyl)piperazine-1-carbonyl]-1H-indol-5-yloxy}pyridin-3-yl)-N-methyl-4-trifluoromethyl-benzamide hydrobromide]
18 | 179 to 183 °C | Br.CCn1c(C(=O)N2CCN(Cc3ccc4c(c3)OCO4)CC2)cc2cc(Oc3ccc(N(C)C(=O)c4ccc(C(F)(F)F)cc4)cn3)ccc21 [Example 344, N-{6-[2-(4-Benzo[1,3]dioxol-5-ylmethylpiperazine-1-carbonyl)-1-ethyl-1H-indol-5-yloxy]pyridin-3-yl}-N-methyl-4-trifluoromethyl-benzamide hydrobromide]
19 | 138.7 to 139.8 °C | Cc1ccc(S(=O)(=O)N(C)c2ccc(Oc3ccc4cc(C(=O)N5CCN(Cc6ccc(OCCF)cc6)CC5)n(C)c4c3)nc2)cc1 [Example 531, N-[6-(2-{4-[4-(2-Fluoroethoxy)benzyl]piperazine-1-carbonyl}-1-methyl-1H-indol-6-yloxy)pyridin-3-yl]-4,N-dimethylbenzene-sulfonamide]
20 | 175 to 177 °C | Br.COc1ccc(CN2CCN(C(=O)c3cc4cc(Oc5ccc(N(C)C(=O)c6ccc(C(F)(F)F)cc6)cn5)ccc4n3C)CC2)cc1OC [Example 345, N-(6-{2-[4-(3,4-Dimethoxybenzyl)piperazine-1-carbonyl]-1-methyl-1H-indol-5-yloxy}pyridin-3-yl)-N-methyl-4-trifluoromethyl-benzamide hydrobromide]
21 | 195 to 196 °C | COc1ccc(C(=O)N2CCN(C(=O)c3cc4cc(Oc5ccc(NC(=O)c6ccc(C(F)(F)F)cc6)cn5)ccc4n3C)CC2)cc1 [Example 240, N-(6-{2-[4-(4-Methoxybenzoyl)piperazine-1-carbonyl]-1-methyl-1H-indol-5-yloxy}pyridin-3-yl)-4-trifluoromethylbenzamide]
22 | 267 to 272 °C (dec.) | Br.Cn1c(C(=O)N2CCN(Cc3ccc(C#N)cc3)CC2)cc2cc(Oc3ccc(NC(=O)c4ccc(Cl)c(Cl)c4)cn3)ccc21 [Example 556, 3,4-Dichloro-N-(6-{2-[4-(4-cyanobenzyl)piperazine-1-carbonyl]-1-methyl-1H-indol-5-yloxy}pyridin-3-yl)benzamide hydrobromide]
23 | 240 to 243 °C | CN(C(=O)Nc1ccc(Cl)c(Cl)c1)c1ccc(Oc2ccc3c(c2)cc(C(=O)N2CCN(Cc4ccc5c(c4)OCO5)CC2)n3C)nc1.Cl
24 | 132 to 134 °C | CCCc1ccc(CN2CCN(C(=O)c3cc4cc(Oc5ccc(N(C)C(=O)c6ccc(C(F)(F)F)cc6)cn5)ccc4n3C)CC2)cc1.O=C(O)/C=C\C(=O)O [Example 411, N-Methyl-N-(6-{1-methyl-2-[4-(4-propylbenzyl)piperazine-1-carbonyl]-1H-indol-5-yloxy}pyridin-3-yl)-4-trifluoromethyl-benzamide maleate]
25 | 163 to 166 °C | Br.CCOc1ccc(CN2CCN(C(=O)c3cc4cc(Oc5cc(C)c(N(C)C(=O)c6ccc(C(F)(F)F)cc6)cn5)ccc4n3C)CC2)cc1 [Example 365, N-(6-{2-[4-(4-Ethoxybenzyl)piperazine-1-carbonyl]-1-methyl-1H-indol-5-yloxy}-4-methylpyridin-3-yl)-N-methyl-4-trifluoromethyl-benzamide hydrobromide]
26 | 131 to 132 °C | CCOc1ccc(CN2CCN(C(=O)c3cc4cc(Oc5ccc(N(C)C(=O)c6ccc(Cl)c(Cl)c6)c(C)n5)ccc4n3C)CC2)cc1.O=C(O)/C=C\C(=O)O [Example 372, 3,4-Dichloro-N-(6-{2-[4-(4-ethoxybenzyl)piperazine-1-carbonyl]-1-methyl-1H-indol-5-yloxy}-2-methylpyridin-3-yl)-N-methylbenzamide maleate]
27 | 203.8 to 205.6 °C | Br.CN(C(=O)c1ccc(OC(F)F)cc1)c1ccc(Oc2ccc3cc(C(=O)N4CCN(Cc5ccc(OCC(F)(F)F)cc5)CC4)n(C)c3c2)nc1 [Example 284, 4-Difluoromethoxy-N-methyl-N-[6-(1-methyl-2-{4-[4-(2,2,2-tri-fluoroethoxy)benzyl]piperazine-1-carbonyl}-1H-indol-6-yloxy)-pyridin-3-yl]benzamide hydrobromide]
